System: MV-4-11 cells
Assay: Gene expression microarray analysis (Affymetrix PrimeView) and GSEA
Format: cell-based, human
Design: RFU PODN (11730768_x_at) / Fold change /veh PODN (11730768_x_at) / RFU LINC00158 (11744669_a_at) / Fold change /veh LINC00158 (11744669_a_at) / RFU DUSP10 (11751237_a_at) / Fold change /veh DUSP10 (11751237_a_at) / RFU ID3 (11757404_x_at) / Fold change /veh ID3 (11757404_x_at) / RFU PLEKHG5 (11737974_s_at) / Fold change /veh PLEKHG5 (11737974_s_at) / RFU LRRC4B (11730491_at) / Fold change /veh LRRC4B (11730491_at) / RFU GIMAP4 (11747438_a_at) / Fold change /veh GIMAP4 (11747438_a_at) / RFU KRT8 (11758183_x_at) / Fold change /veh KRT8 (11758183_x_at) / RFU CNN1 (11734310_a_at) / Fold change /veh CNN1 (11734310_a_at) / RFU VPS37D (11726825_at) / Fold change /veh VPS37D (11726825_at) / RFU C10orf10 (11716522_x_at) / Fold change /veh C10orf10 (11716522_x_at) / RFU KIR2DL2 /// KIR2DL4 /// KIR2DL5A /// KIR2DL5B /// KIR2DS1 /// KIR2DS2 /// KIR2DS3 /// KIR2DS4 /// KIR3DL3 /// KIR3DL3 /// KIR3DS1 (11738374_at) / Fold change /veh KIR2DL2 /// KIR2DL4 /// KIR2DL5A /// KIR2DL5B /// KIR2DS1 /// KIR2DS2 /// KIR2DS3 /// KIR2DS4 /// KIR3DL3 /// KIR3DL3 /// KIR3DS1 (11738374_at) / RFU C1QL1 (11718748_at) / Fold change /veh C1QL1 (11718748_at) / RFU TMPRSS4 (11747572_a_at) / Fold change /veh TMPRSS4 (11747572_a_at) / RFU HAMP (11756126_x_at) / Fold change /veh HAMP (11756126_x_at) / RFU RNFT2 (11725882_a_at) / Fold change /veh RNFT2 (11725882_a_at) / RFU NR4A2 (11747474_a_at) / Fold change /veh NR4A2 (11747474_a_at) / RFU ABCC12 (11746883_a_at) / Fold change /veh ABCC12 (11746883_a_at) / RFU TMEM136 (11760407_x_at) / Fold change /veh TMEM136 (11760407_x_at) / RFU CLDN22 /// WWC2 (11732394_at) / Fold change /veh CLDN22 /// WWC2 (11732394_at) / RFU HLA-DPB1 (11760878_x_at) / Fold change /veh HLA-DPB1 (11760878_x_at) / RFU SPINT1 (11716480_a_at) / Fold change /veh SPINT1 (11716480_a_at) / RFU GAP43 (11754022_s_at) / Fold change /veh GAP43 (11754022_s_at) / RFU A4GNT (11735810_at) / Fold change /veh A4GNT (11735810_at) / RFU PRB3 (11715151_x_at) / Fold change /veh PRB3 (11715151_x_at) / RFU TUBB4B (11761932_at) / Fold change /veh TUBB4B (11761932_at) / RFU CAPN14 (11732068_a_at) / Fold change /veh CAPN14 (11732068_a_at) / RFU TMCC2 (11721928_a_at) / Fold change /veh TMCC2 (11721928_a_at) / RFU IRGQ (11745062_a_at) / Fold change /veh IRGQ (11745062_a_at) / RFU FAM174B (11720279_a_at) / Fold change /veh FAM174B (11720279_a_at) / RFU TMPRSS4 (11748680_a_at) / Fold change /veh TMPRSS4 (11748680_a_at) / RFU FAM212B (11763350_a_at) / Fold change /veh FAM212B (11763350_a_at) / RFU PLEKHG5 (11743358_a_at) / Fold change /veh PLEKHG5 (11743358_a_at) / RFU ZSCAN30 (11745921_a_at) / Fold change /veh ZSCAN30 (11745921_a_at) / RFU CMKLR1 (11741424_a_at) / Fold change /veh CMKLR1 (11741424_a_at) / RFU LOC101060620 /// MAPK8IP1 (11723275_at) / Fold change /veh LOC101060620 /// MAPK8IP1 (11723275_at) / RFU SPTSSB (11747773_x_at) / Fold change /veh SPTSSB (11747773_x_at) / RFU PRSS12 (11739890_at) / Fold change /veh PRSS12 (11739890_at) / RFU BIN1 (11741810_x_at) / Fold change /veh BIN1 (11741810_x_at) / RFU WNT11 (11732464_a_at) / Fold change /veh WNT11 (11732464_a_at) / RFU C10orf10 (11716521_a_at) / Fold change /veh C10orf10 (11716521_a_at) / RFU C5orf56 (11738089_at) / Fold change /veh C5orf56 (11738089_at) / RFU CYB561 (11721691_x_at) / Fold change /veh CYB561 (11721691_x_at) / RFU ANKRD19P (11752326_a_at) / Fold change /veh ANKRD19P (11752326_a_at) / RFU OR2T12 /// OR2T33 /// OR2T8 (11738714_s_at) / Fold change /veh OR2T12 /// OR2T33 /// OR2T8 (11738714_s_at) / RFU VCAN (11748164_a_at) / Fold change /veh VCAN (11748164_a_at) / RFU JSRP1 (11732532_at) / Fold change /veh JSRP1 (11732532_at) / RFU KRTAP10-11 (11738290_x_at) / Fold change /veh KRTAP10-11 (11738290_x_at) / RFU MYO3A (11730013_a_at) / Fold change /veh MYO3A (11730013_a_at) / RFU EBF3 (11725865_a_at) / Fold change /veh EBF3 (11725865_a_at) / RFU CAMK2N1 (11719241_x_at) / Fold change /veh CAMK2N1 (11719241_x_at) / RFU C5orf56 (11738088_a_at) / Fold change /veh C5orf56 (11738088_a_at) / RFU OLFML3 (11715873_a_at) / Fold change /veh OLFML3 (11715873_a_at) / RFU LOC100653217 /// NTM (11731650_a_at) / Fold change /veh LOC100653217 /// NTM (11731650_a_at) / RFU MAPK11 (11762145_a_at) / Fold change /veh MAPK11 (11762145_a_at) / RFU FIZ1 (11724087_x_at) / Fold change /veh FIZ1 (11724087_x_at) / RFU OASL (11726364_x_at) / Fold change /veh OASL (11726364_x_at) / RFU SOX15 (11748057_x_at) / Fold change /veh SOX15 (11748057_x_at) / RFU CD79A (11719716_a_at) / Fold change /veh CD79A (11719716_a_at) / RFU HIST1H1D (11736915_at) / Fold change /veh HIST1H1D (11736915_at) / RFU CASKIN2 (11723855_a_at) / Fold change /veh CASKIN2 (11723855_a_at) / RFU LOC730098 (11760151_x_at) / Fold change /veh LOC730098 (11760151_x_at) / RFU OR4N2 (11742367_at) / Fold change /veh OR4N2 (11742367_at) / RFU PRRT2 (11749266_a_at) / Fold change /veh PRRT2 (11749266_a_at) / RFU SNX32 (11753110_a_at) / Fold change /veh SNX32 (11753110_a_at) / RFU CDHR5 (11726645_a_at) / Fold change /veh CDHR5 (11726645_a_at) / RFU RCAN1 (11760418_a_at) / Fold change /veh RCAN1 (11760418_a_at) / RFU FAM167A (11723789_a_at) / Fold change /veh FAM167A (11723789_a_at) / RFU FAM26E (11764081_at) / Fold change /veh FAM26E (11764081_at) / RFU ISYNA1 (11749810_s_at) / Fold change /veh ISYNA1 (11749810_s_at) / RFU ACY1 (11761880_at) / Fold change /veh ACY1 (11761880_at) / RFU 11764098_at / Fold change /veh 11764098_at / RFU SAMD14 (11745864_x_at) / Fold change /veh SAMD14 (11745864_x_at) / RFU NPB (11741838_a_at) / Fold change /veh NPB (11741838_a_at) / RFU TMPRSS6 (11731388_a_at) / Fold change /veh TMPRSS6 (11731388_a_at) / RFU KRTAP10-2 (11738614_at) / Fold change /veh KRTAP10-2 (11738614_at) / RFU ARHGAP8 /// PRR5-ARHGAP8 (11727945_x_at) / Fold change /veh ARHGAP8 /// PRR5-ARHGAP8 (11727945_x_at) / RFU KRTAP5-7 /// NADSYN1 (11734609_at) / Fold change /veh KRTAP5-7 /// NADSYN1 (11734609_at) / RFU RASL12 (11751679_a_at) / Fold change /veh RASL12 (11751679_a_at) / RFU CDKN2B (11736163_a_at) / Fold change /veh CDKN2B (11736163_a_at) / RFU PRF1 (11729649_at) / Fold change /veh PRF1 (11729649_at) / RFU, ZNF638 /// ZNF638-IT1 / Fold change vs veh, ZNF638 /// ZNF638-IT1 / RFU, PANK3 / Fold change vs veh, PANK3 / RFU, SH3YL1 / Fold change vs veh, SH3YL1 / RFU, ZEB2 / Fold change vs veh, ZEB2 / RFU, NRIP1 / Fold change vs veh, NRIP1 / RFU, PTTG1IP / Fold change vs veh, PTTG1IP / RFU, CAPN2 / Fold change vs veh, CAPN2 / RFU, MED14 / Fold change vs veh, MED14 / RFU, SNORA58 / Fold change vs veh, SNORA58 / RFU, C1orf63 / Fold change vs veh, C1orf63 / RFU, LRRFIP1 / Fold change vs veh, LRRFIP1 / RFU, NDUFAF7 / Fold change vs veh, NDUFAF7 / RFU, SLC12A2 / Fold change vs veh, SLC12A2 / RFU, IBTK / Fold change vs veh, IBTK / RFU, ESF1 / Fold change vs veh, ESF1 / Fold change vs veh, TMEM50B / RFU, TAOK1 / Fold change vs veh, TAOK1 / RFU, ACBD3 / Fold change vs veh, ACBD3 / RFU, TMA16 / Fold change vs veh, TMA16 / RFU, RWDD3 / Fold change vs veh, RWDD3 / RFU, BCAT1 / Fold change vs veh, BCAT1 / RFU, EDEM3 / Fold change vs veh, EDEM3 / RFU, TMEM33 / Fold change vs veh, TMEM33 / RFU, WDR75 / Fold change vs veh, WDR75 / RFU, AHCTF1 / Fold change vs veh, AHCTF1 / RFU, TFRC / Fold change vs veh, TFRC / RFU, ZDHHC17 / Fold change vs veh, ZDHHC17 / RFU, NOM1 / Fold change vs veh, NOM1 / RFU, ARL8B / Fold change vs veh, ARL8B / RFU, ZBTB11 / Fold change vs veh, ZBTB11 / RFU, TAMM41 / Fold change vs veh, TAMM41 / RFU, KIAA1704 /// LOC100996395 / Fold change vs veh, KIAA1704 /// LOC100996395 / RFU, ING1 / Fold change vs veh, ING1 / RFU, TRMT61B / Fold change vs veh, TRMT61B / RFU, FUBP3 / Fold change vs veh, FUBP3 / RFU, TP53 / Fold change vs veh, TP53 / RFU, TNKS2 / Fold change vs veh, TNKS2 / RFU, ZFP14 / Fold change vs veh, ZFP14 / RFU, ACTR2 / Fold change vs veh, ACTR2 / RFU, PPP3R1 / Fold change vs veh, PPP3R1 / RFU, PIK3R1 / Fold change vs veh, PIK3R1 / RFU, HNRNPA1 / Fold change vs veh, HNRNPA1 / RFU, RNF170 / Fold change vs veh, RNF170 / RFU, ZNF28 / Fold change vs veh, ZNF28 / RFU, RNGTT / Fold change vs veh, RNGTT / RFU, OGT / Fold change vs veh, OGT / RFU, BRD1 / Fold change vs veh, BRD1 / RFU, MARS / Fold change vs veh, MARS / RFU, ZNF655 / Fold change vs veh, ZNF655 / RFU, FAHD1 / Fold change vs veh, FAHD1 / RFU, BDP1 / Fold change vs veh, BDP1 / RFU, LRRCC1 / Fold change vs veh, LRRCC1 / RFU, ARID1A / Fold change vs veh, ARID1A / RFU, ZNF146 / Fold change vs veh, ZNF146 / RFU, ZNF330 / Fold change vs veh, ZNF330 / RFU, GPN3 / Fold change vs veh, GPN3 / RFU, C9orf123 / Fold change vs veh, C9orf123 / RFU, N4BP2L2 / Fold change vs veh, N4BP2L2 / RFU, ARFIP1 / Fold change vs veh, ARFIP1 / RFU, FAM179B / Fold change vs veh, FAM179B / RFU, BCL10 / Fold change vs veh, BCL10 / RFU, UHRF1BP1L / Fold change vs veh, UHRF1BP1L / RFU, BET1 / Fold change vs veh, BET1 / RFU, CNOT2 / Fold change vs veh, CNOT2 / RFU, ZNF268 / Fold change vs veh, ZNF268 / Fold change vs veh, ZNF507 / RFU, DGCR2 / Fold change vs veh, DGCR2 / RFU, WDSUB1 / Fold change vs veh, WDSUB1 / Fold change vs veh, HSP90B1 /// MIR3652 / RFU, ADSS / Fold change vs veh, ADSS / RFU, GK / Fold change vs veh, GK / RFU, ZNF148 / Fold change vs veh, ZNF148 / RFU, TAF9 / Fold change vs veh, TAF9 / RFU, SLC1A5 / Fold change vs veh, SLC1A5 / RFU, SLMO2 / Fold change vs veh, SLMO2 / RFU, ABCC4 / Fold change vs veh, ABCC4 / RFU, LOC101060439 /// RAP1B / Fold change vs veh, LOC101060439 /// RAP1B / RFU, RFX7 / Fold change vs veh, RFX7 / RFU, GTPBP10 / Fold change vs veh, GTPBP10 / RFU, CNEP1R1 / Fold change vs veh, CNEP1R1 / RFU, BIVM-ERCC5 /// ERCC5 / Fold change vs veh, BIVM-ERCC5 /// ERCC5 / RFU, ILF3 / Fold change vs veh, ILF3 / RFU 11762660_at / Fold change /veh 11762660_at / RFU VCAN (11757783_s_at) / Fold change /veh VCAN (11757783_s_at) / RFU DDX43 (11728927_at) / Fold change /veh DDX43 (11728927_at) / RFU KRT8 (11758188_x_at) / Fold change /veh KRT8 (11758188_x_at) / RFU NKD1 (11759106_at) / Fold change /veh NKD1 (11759106_at) / RFU SRD5A1 (11742802_a_at) / Fold change /veh SRD5A1 (11742802_a_at) / RFU TPSAB1 /// TPSB2 (11721975_s_at) / Fold change /veh TPSAB1 /// TPSB2 (11721975_s_at) / RFU GSTM3 (11746129_a_at) / Fold change /veh GSTM3 (11746129_a_at) / RFU IL23R (11737362_x_at) / Fold change /veh IL23R (11737362_x_at) / RFU TMEM51 (11727254_a_at) / Fold change /veh TMEM51 (11727254_a_at) / RFU PIWIL2 (11732686_x_at) / Fold change /veh PIWIL2 (11732686_x_at) / RFU ORM1 (11744905_x_at) / Fold change /veh ORM1 (11744905_x_at) / RFU CCDC152 (11743942_at) / Fold change /veh CCDC152 (11743942_at) / RFU ECM1 (11717891_a_at) / Fold change /veh ECM1 (11717891_a_at) / RFU IL23R (11748794_a_at) / Fold change /veh IL23R (11748794_a_at) / RFU TNFAIP8L3 (11732012_x_at) / Fold change /veh TNFAIP8L3 (11732012_x_at) / RFU MBOAT4 (11741988_at) / Fold change /veh MBOAT4 (11741988_at) / RFU 11764193_at / Fold change /veh 11764193_at / RFU TMEM53 (11763286_at) / Fold change /veh TMEM53 (11763286_at) / RFU MAGEB2 (11727129_at) / Fold change /veh MAGEB2 (11727129_at) / RFU TMEM200A (11744735_a_at) / Fold change /veh TMEM200A (11744735_a_at) / RFU CCDC152 (11751479_a_at) / Fold change /veh CCDC152 (11751479_a_at) / RFU FAM211A (11726209_a_at) / Fold change /veh FAM211A (11726209_a_at) / RFU RGS16 (11746705_a_at) / Fold change /veh RGS16 (11746705_a_at) / RFU VCAN (11755009_s_at) / Fold change /veh VCAN (11755009_s_at) / RFU RHOB (11743442_s_at) / Fold change /veh RHOB (11743442_s_at) / RFU RGS16 (11720943_a_at) / Fold change /veh RGS16 (11720943_a_at) / RFU RGS16 (11720944_at) / Fold change /veh RGS16 (11720944_at) / RFU, VPS4B / Fold change vs veh, VPS4B / RFU, CREB1 / Fold change vs veh, CREB1 / RFU, DNAJC13 / Fold change vs veh, DNAJC13 / RFU, GNAQ / Fold change vs veh, GNAQ / RFU, CDK5R1 / Fold change vs veh, CDK5R1 / RFU, ZRANB3 / Fold change vs veh, ZRANB3 / RFU, CUL4A / Fold change vs veh, CUL4A / RFU, CCNY / Fold change vs veh, CCNY / RFU, UFL1 / Fold change vs veh, UFL1 / RFU, COG3 / Fold change vs veh, COG3 / RFU, DIAPH2 / Fold change vs veh, DIAPH2 / RFU, SKA2 / Fold change vs veh, SKA2 / RFU, AFF3 / Fold change vs veh, AFF3 / RFU, LMF1 / Fold change vs veh, LMF1 / RFU, IPO11 / Fold change vs veh, IPO11 / RFU, DFFB / Fold change vs veh, DFFB / RFU, FOXP1 / Fold change vs veh, FOXP1 / RFU, CARD8 / Fold change vs veh, CARD8 / RFU, STRN3 / Fold change vs veh, STRN3 / RFU, ADK / Fold change vs veh, ADK / RFU, RASSF2 / Fold change vs veh, RASSF2 / RFU, WIPF1 / Fold change vs veh, WIPF1 / RFU, LARP1B / Fold change vs veh, LARP1B / RFU, RASA1 / Fold change vs veh, RASA1 / RFU, RB1 / Fold change vs veh, RB1 / RFU, PPFIA1 / Fold change vs veh, PPFIA1 / RFU, MAT2A / Fold change vs veh, MAT2A / RFU, CCT5 / Fold change vs veh, CCT5 / RFU, WDR92 / Fold change vs veh, WDR92 / RFU, CUX1 / Fold change vs veh, CUX1 / RFU, TTC7A / Fold change vs veh, TTC7A / RFU, TMEM135 / Fold change vs veh, TMEM135 / RFU, DEPTOR / Fold change vs veh, DEPTOR / RFU, CPM / Fold change vs veh, CPM / RFU, DNAJB6 / Fold change vs veh, DNAJB6 / RFU, CACNA2D3 / Fold change vs veh, CACNA2D3 / RFU, DTX4 / Fold change vs veh, DTX4 / RFU, TFCP2 / Fold change vs veh, TFCP2 / RFU, GMCL1 /// GMCL1P1 / Fold change vs veh, GMCL1 /// GMCL1P1 / RFU, AEBP2 / Fold change vs veh, AEBP2 / RFU, SNHG1 /// SNORD22 /// SNORD25 /// SNORD26 /// SNORD27 /// SNORD28 /// SNORD29 /// SNORD31 / Fold change vs veh, SNHG1 /// SNORD22 /// SNORD25 /// SNORD26 /// SNORD27 /// SNORD28 /// SNORD29 /// SNORD31 / Fold change (Aza/veh), C12orf56 (ProbeSet 11735607_a_at) / Fold change (ACY-1035/veh), C12orf56 (ProbeSet 11735607_a_at) / Fold change (Aza/veh), FGFR1OP (ProbeSet 11751329_s_at) / Fold change (ACY-1035/veh), FGFR1OP (ProbeSet 11751329_s_at) / Fold change (Aza/veh), VPS36 (ProbeSet 11739960_a_at) / Fold change (ACY-1035/veh), VPS36 (ProbeSet 11739960_a_at) / RFU SYPL1 (11715823_x_at) / Fold change /veh SYPL1 (11715823_x_at) / RFU IGFBP7 (11715501_s_at) / Fold change /veh IGFBP7 (11715501_s_at) / RFU REEP3 (11722064_at) / Fold change /veh REEP3 (11722064_at) / RFU IGLL1 (11728026_x_at) / Fold change /veh IGLL1 (11728026_x_at): dose or concentration left out as unconfirmed
Details: MV-4-11 cells, 48 hours

Compound: Nc1ncn([C@@H]2O[C@H](CO)[C@@H](O)[C@H]2O)c(=O)n1 [azacitidine]
- Fold change /veh CCDC152 (11743942_at): 1.57

— publication PMC5218480 (PLoS ONE, 2017)
